Where two headings read alike, the source gives them in different places.
Experiment: Plasma pharmacokinetics of SGC003F in rats with or without tariquidar
Type: in vivo, rat
Conditions: for clearance / AUC(0-t) / Vd / Tmax / half-life / Cmax / bioavailability: male, Sprague-Dawley, plasma; for Vd: read-out: Vss; for bioavailability: read-out: F (bioavailability)
Experimental: Adult Sprague Dawley rats (230–280 g) were obtained from Beijing Vital River Laboratory Animal Technology Co., Ltd. (Beijing, China). The animals were kept in a controlled environment with a 12 h light/dark cycle and stable temperature, and had free access to food and water, adapting for one week. All animal procedures were approved by the Experimental Animal Ethics Committee of Beijing Institute of Pharmacology and Toxicology (IACUC-DWZX-2023-P718).
SGC003F and tariquidar were dissolved in a solvent consisting of 11% isopropyl myristate, 74% polyethylene glycol 35 castor oil, and 15% diethylene glycol monoethyl ether. The stock solution concentrations were 1 mg/mL for SGC003F and 22.5 mg/mL for tariquidar. Next, the stock solution of SGC003F and tariquidar were diluted with saline at a ratio of 1:9 and 1:3.5, respectively, to achieve a working solution of SGC003F (0.1 mg/mL) and tariquidar (5 mg/mL) for oral and intravenous administration in rats.
Thirty-six male SD rats were randomly divided into 6 groups, with 6 rats in each group. Group I: SGC003F (p.o., 1 mg/kg) + blank vehicle (control group); Group II: SGC003F (p.o., 1 mg/kg) + tariquidar (i.v., 7.5 mg/kg); Group III: SGC003F (p.o., 1 mg/kg) + tariquidar (p.o., 15 mg/kg); Group IV: SGC003F (i.v., 1 mg/kg) + blank vehicle; Group V: SGC003F (i.v., 1 mg/kg) + tariquidar (i.v., 7.5 mg/kg); Group VI: SGC003F (i.v., 1 mg/kg) + tariquidar (p.o., 15 mg/kg). Oral administration required fasting for 12 h in advance and free access to water. At 0.033 (i.v.), 0.083, 0.25, 0.5, 1, 2, 4, 8, 12, and 24 h after administration, 100 μL of blood was collected intravenously and placed in heparin tubes. All blood samples were centrifuged at 2500× g for 10 min at 4 °C, and plasma was stored at −40 °C for analysis.
The main pharmacokinetic parameters, such as time to peak (tmax), half-life (t1/2), peak concentration (Cmax), and area under the curve (AUC), bioavailability (F), were calculated using a non-compartmental model with WinNonlin 8.1 software (Princeton, NJ, USA).
The elimination rate constant (ke or λz) was determined from the terminal phase of the concentration–time curve by using a semilogarithmic plot. Furthermore, the half-life (t1/2) was calculated according to this equation t1/2 = 0.693/ke(1)
Bioavailability (F) was calculated according to Equation (2):F = Dose(i.v.) × AUC(p.o.)/Dose(p.o.) × AUC(i.v.) × 100%(2)

[1] = rat, po, 1 mg/kg, SGC003F p.o. 1 mg/kg, single
[2] = rat, po, 1 mg/kg, SGC003F p.o. 1 mg/kg, with tariquidar i.v. 7.5 mg/kg
[3] = rat, po, 1 mg/kg, SGC003F p.o. 1 mg/kg, with tariquidar p.o. 15 mg/kg
[4] = rat, po, 1 mg/kg, rat plasma, SGC003F p.o. 1 mg/kg, single
[5] = rat, po, 1 mg/kg, rat plasma, SGC003F p.o. 1 mg/kg, with tariquidar i.v. 7.5 mg/kg
[6] = rat, po, 1 mg/kg, rat plasma, SGC003F p.o. 1 mg/kg, with tariquidar p.o. 15 mg/kg
[7] = rat plasma, SGC003F p.o. 1 mg/kg, tariquidar i.v. 7.5 mg/kg
[8] = rat plasma, SGC003F p.o. 1 mg/kg, tariquidar p.o. 15 mg/kg
[9] = rat, SGC003F i.v. 1 mg/kg, tariquidar i.v. 7.5 mg/kg
[10] = rat, SGC003F i.v. 1 mg/kg, tariquidar p.o. 15 mg/kg
[11] = rat, SGC003F p.o. 1 mg/kg, tariquidar i.v. 7.5 mg/kg
[12] = rat, SGC003F p.o. 1 mg/kg, tariquidar p.o. 15 mg/kg

COC(=O)Nc1c(N)nc(-c2nn(Cc3sccc3F)c3ncc(F)cc23)nc1N [SGC003F]
clearance (rat, iv, 1 mg/kg, SGC003F i.v. 1 mg/kg, single): 2.18 mL/min/kg
clearance (rat, iv, 1 mg/kg, SGC003F i.v. 1 mg/kg, with tariquidar i.v. 7.5 mg/kg): 2.03 mL/min/kg
clearance (rat, iv, 1 mg/kg, SGC003F i.v. 1 mg/kg, with tariquidar p.o. 15 mg/kg): 1.49 mL/min/kg
AUC(0-t) (rat, iv, 1 mg/kg, rat plasma, SGC003F i.v. 1 mg/kg, single): 7620 ± 560 ng·h/mL
AUC(0-t) (rat, iv, 1 mg/kg, rat plasma, SGC003F i.v. 1 mg/kg, with tariquidar i.v. 7.5 mg/kg): 8170 ± 530 ng·h/mL
AUC(0-t) (rat, iv, 1 mg/kg, rat plasma, SGC003F i.v. 1 mg/kg, with tariquidar p.o. 15 mg/kg): 11300 ng·h/mL
Vd (rat, iv, 1 mg/kg, rat, SGC003F i.v. 1 mg/kg, single): 0.419 ± 0.0318 L/kg
Vd (rat, iv, 1 mg/kg, rat, SGC003F i.v. 1 mg/kg, with tariquidar i.v. 7.5 mg/kg): 0.422 ± 0.0328 L/kg
Vd (rat, iv, 1 mg/kg, rat, SGC003F i.v. 1 mg/kg, with tariquidar p.o. 15 mg/kg): 0.382 ± 0.0266 L/kg
Tmax [1]: 1.33 ± 0.52 h
half-life [1]: 3.45 ± 0.46 h
Tmax [2]: 1.5 ± 0.55 h
half-life [2]: 4.31 ± 0.91 h
Tmax [3]: 2.33 ± 1.37 h
half-life [3]: 4.35 ± 0.35 h
AUC(0-t) [4]: 3540 ± 610 ng·h/mL
Cmax [4]: 673 ± 187 ng/mL
AUC(0-t) [5]: 5690 ± 1080 ng·h/mL
Cmax [5]: 722 ± 111 ng/mL
AUC(0-t) [6]: 10800 ng·h/mL
Cmax [6]: 1430 ± 250 ng/mL
bioavailability (rat, po, 1 mg/kg, rat, SGC003F p.o. 1 mg/kg, single): 46.4%
bioavailability (rat, po, 1 mg/kg, rat, SGC003F p.o. 1 mg/kg, with tariquidar i.v. 7.5 mg/kg): 69.7%
bioavailability (rat, po, 1 mg/kg, rat, SGC003F p.o. 1 mg/kg, with tariquidar p.o. 15 mg/kg): 95.1%
bioavailability (rat, po, rat, SGC003F p.o. 1 mg/kg, with tariquidar p.o. 15 mg/kg): 95%
AUC0-t, Ratio 1 (with Tar (i.v.)/single) (rat plasma, SGC003F i.v. 1 mg/kg, tariquidar i.v. 7.5 mg/kg): 1.07
AUC0-t, Ratio 2 (with Tar (p.o.)/single) (rat plasma, SGC003F i.v. 1 mg/kg, tariquidar p.o. 15 mg/kg): 1.49
AUC0-t, Ratio 1 (with Tar (i.v.)/single) [7]: 1.61
Cmax, Ratio 1 (with Tar (i.v.)/single) [7]: 1.07
AUC0-t, Ratio 2 (with Tar (p.o.)/single) [8]: 3.05
Cmax, Ratio 2 (with Tar (p.o.)/single) [8]: 2.13
CL, Ratio 1 (with Tar (i.v.)/single) [9]: 0.93
Vss, Ratio 1 (with Tar (i.v.)/single) [9]: 1.00
CL, Ratio 2 (with Tar (p.o.)/single) [10]: 0.68
Reduction of CL versus control group [10]: 32%
Vss, Ratio 2 (with Tar (p.o.)/single) [10]: 0.91
F, Ratio 1 (with Tar (i.v.)/single) [11]: 1.50
Tmax, Ratio 1 (with Tar (i.v.)/single) [11]: 1.13
t1/2, Ratio 1 (with Tar (i.v.)/single) [11]: 1.25
F, Ratio 2 (with Tar (p.o.)/single) [12]: 2.05
Tmax, Ratio 2 (with Tar (p.o.)/single) [12]: 1.75
t1/2, Ratio 2 (with Tar (p.o.)/single) [12]: 1.26

From PMC11435065, “Inhibition of P-Glycoprotein Asymmetrically Alters the In Vivo Exposure Profile of SGC003F: A Novel Guanylate Cyclase Stimulator” (Pharmaceuticals, 2024)
